Data set [1] has as its target T1, bovine serum albumin (BSA) (Bos taurus, UniProt P02769).
T1 construct: purchased EMD (Billerica, MA)
Put plainly: ITC, BSA control protein. In kind it is binding. The protocol: (2) Preparation of Flag-DDX5, Flag-USP2, Flag-UbE2T and Flag-Top1 protein solutions (>360 μL/sample), respectively, containing 10 μM of Flag-DDX5, Flag-USP2, Flag-UbE2T or Flag-Top1 proteins in 1×PBS (pH7.4) and 8% DMSO from protein stocks in 1× PBS (the same solution was also prepared for BSA).
(3) preparation of washing/diluting solution (>2.5 mL/sample) containing 1× PBS (pH7.4) and 8% DMSO.
(4) ITC assay was performed using the auto-iTC200 instrument (MicroCal, GE). A protein solution (Flag-DDX5, Flag-USP2, Flag-UbE2T, Flag-Topl or BSA) with defined concentration (10 μM) in a volume of 360 μL in 1×PBS (pH7.4) containing 8% DMSO was loaded into the calorimeter cell as the Macromolecule (M). […] At each injection, the program calculates [M]t and [X]t (total protein and total ligand at that injection). The binding constant (KD)), binding stoichiometry (n), and thermodynamic parameters (AH and AS) were determined by fitting the titration curve to a one-site binding mode, using the Origin software provided by the manufacturer.
For orientation: In ITC the heat of successive injections is recorded.

Data set [2] in a line: PK after single oral dose in tumor bearing mice.
[3] abbreviates: HT29 tumor, single oral dose […].
[4] abbreviates: SW620 tumor, single oral dose […].
[5] abbreviates: mouse plasma, single oral dose […].

Consider one compound from US20250312469A1 (CANGET BIOTEKPHARMA, priority 2024, published 2025).

T1 sequence (P02769 25-607): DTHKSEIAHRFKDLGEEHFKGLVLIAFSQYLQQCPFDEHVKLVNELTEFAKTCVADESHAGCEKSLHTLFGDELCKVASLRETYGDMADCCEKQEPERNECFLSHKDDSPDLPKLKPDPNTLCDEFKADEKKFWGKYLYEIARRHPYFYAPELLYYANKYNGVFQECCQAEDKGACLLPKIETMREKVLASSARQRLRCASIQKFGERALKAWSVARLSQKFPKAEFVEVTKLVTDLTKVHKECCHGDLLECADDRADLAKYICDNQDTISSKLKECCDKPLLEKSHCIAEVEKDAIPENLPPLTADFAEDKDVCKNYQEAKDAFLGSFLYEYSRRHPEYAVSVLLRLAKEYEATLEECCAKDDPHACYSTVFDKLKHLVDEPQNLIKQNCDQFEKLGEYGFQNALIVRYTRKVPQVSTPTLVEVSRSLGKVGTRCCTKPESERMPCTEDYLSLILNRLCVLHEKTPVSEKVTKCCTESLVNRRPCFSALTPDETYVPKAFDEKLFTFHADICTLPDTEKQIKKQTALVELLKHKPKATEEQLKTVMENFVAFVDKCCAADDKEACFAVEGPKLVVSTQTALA

One may read the Tmax as the time from dosing to the highest level. For `CCC1(O)C(=O)OCc2c1cc1n(c2=O)Cc2cc3cc4c(cc3nc2-1)OCO4` (stereo not shown) [FL118], in data set [1], the “binding to BSA” value is “no binding”. The Cl in data set [2] (setting [3]) is listed as 8,440 g/hr/kg; in data set [2] (HT29 tumor, p.o. […]), 8,440 g/hr/kg; in data set [2] (setting [4]), 6,710 g/hr/kg; in data set [2] (SW620 tumor, p.o. […]), 6,710 g/hr/kg; in data set [2] (setting [5]), 17,000 mL/hr/kg; in data set [2] (plasma, p.o. […]), 17,000 mL/hr/kg. The time of peak concentration (Tmax) in data set [2] (setting [3]) was found to be 1.00 h; in data set [2] (setting [4]) it was 1.00 h; in data set [2] (setting [5]), 0.500 h. The VD in data set [2] (setting [3]) is on record as 51,700 g/kg; in data set [2] (HT29 tumor, p.o. […]) it was 51,700 g/kg; in data set [2] (setting [4]) it was 28,900 g/kg; in data set [2] (SW620 tumor, p.o. […]) it was 28,900 g/kg; in data set [2] (setting [5]), 126,000 mL/kg; in data set [2] (plasma, p.o. […]), 126,000 mL/kg. Further, the results for the t1/2 in data set [2] (setting [3]), in data set [2] (setting [4]) and in data set [2] (setting [5]) were 4.24 h, 2.99 h and 5.12 h, respectively. In addition, the “concentration that can be reached in cancer cells” value in data set [2] (from the PK studies) is given as at most 25 nM. Also, the “FL118 concentration, individual mice” value is given as 19.1 ng/mL in data set [2] (plasma, 1.0 h, single oral dose […]) and 4.78 ng/mL in data set [2] (plasma, 4.0 h, single oral dose […]).
